Measured values published in PubChem BioAssay AID330 (DTP/NCI, 2004).
Where “and” joins values, the source holds several entries; their conditions need not be identical. Identical values can stand only once. Toxic doses and inconclusive results are not listed. How the source made its calls: active means survival T/C of 150% or more; inactive means T/C below 125% in these data.

Tested on: P388 leukemia ip, CD2F1 mice, survival T/C
Test: NCI In Vivo Anticancer Drug Screen. Data for tumor model P388 Leukemia (intraperitoneal) in CD2F1 (CDF1) mice
Conditions: endpoint: median survival time, higher = longer survival
Summary of the method: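 Mice carrying the transplanted tumor received test compound or vehicle. Survival was recorded in each group, and the value is the treated-group measurement divided by that of the vehicle-treated control group.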

[1] = dose: 50.0 mg/kg/injection, schedule: Q01DX009 (ip), vehicle: saline with Tween-80
[2] = dose: 100.0 mg/kg/injection, schedule: Q01DX009 (ip), vehicle: saline with Tween-80
[3] = dose: 100.0 mg/kg/injection, schedule: Q01DX009 (ip), vehicle: saline
[4] = dose: 200.0 mg/kg/injection, schedule: Q01DX009 (ip), vehicle: saline
[5] = dose: 50.0 mg/kg/injection, schedule: Q01DX005 (ip), vehicle: saline with Tween-80
[6] = dose: 100.0 mg/kg/injection, schedule: Q01DX005 (ip), vehicle: saline with Tween-80
[7] = dose: 200.0 mg/kg/injection, schedule: Q01DX005 (ip), vehicle: saline with Tween-80
[8] = dose: 25.0 mg/kg/injection, schedule: Q01DX009 (ip), vehicle: saline
[9] = dose: 100.0 mg/kg/injection, schedule: Q04DX003 (ip), vehicle: saline
[10] = dose: 200.0 mg/kg/injection, schedule: Q04DX003 (ip), vehicle: saline
[11] = dose: 400.0 mg/kg/injection, schedule: Q04DX003 (ip), vehicle: saline
[12] = dose: 50.0 mg/kg/injection, schedule: Q01DX009 (ip), vehicle: saline
[13] = dose: 60.0 mg/kg/injection, schedule: Q01DX005 (ip), vehicle: saline with Tween-80
[14] = dose: 120.0 mg/kg/injection, schedule: Q01DX005 (ip), vehicle: saline with Tween-80

Measured: T/C

CSCCC(N)C(=O)O (centres undefined)
inactive: dose: 25.0 mg/kg/injection, schedule: Q01DX005 (ip), vehicle: saline 102 % of control | dose: 25.0 mg/kg/injection, schedule: Q01DX009 (ip), vehicle: other 107 % of control | dose: 25.0 mg/kg/injection, schedule: Q01DX009 (ip), vehicle: saline with Tween-80 103 % of control | dose: 37.5 mg/kg/injection, schedule: Q01DX009 (ip), vehicle: Klucel (hydroxypropylcellulose) (HPC) 122 % of control | dose: 40.0 mg/kg/injection, schedule: Q01DX009 (ip), vehicle: saline with Tween-80 105 % of control | dose: 50.0 mg/kg/injection, schedule: Q01DX005 (ip), vehicle: saline 99 % of control | dose: 50.0 mg/kg/injection, schedule: Q01DX009 (ip), vehicle: other 100 % of control and 107 % of control | [1] 107 % of control | dose: 75.0 mg/kg/injection, schedule: Q01DX009 (ip), vehicle: Klucel (hydroxypropylcellulose) (HPC) 103 % of control | dose: 75.0 mg/kg/injection, schedule: Q01DX009 (ip), vehicle: other 98 % of control and 94 % of control | dose: 80.0 mg/kg/injection, schedule: Q01DX009 (ip), vehicle: saline with Tween-80 100 % of control and 114 % of control | dose: 100.0 mg/kg/injection, schedule: Q01DX005 (ip), vehicle: saline 107 % of control | dose: 100.0 mg/kg/injection, schedule: Q01DX009 (ip), vehicle: other 100 % of control and 107 % of control | [2] 108 % of control | [3] 102 % of control | dose: 150.0 mg/kg/injection, schedule: Q01DX009 (ip), vehicle: other 103 % of control and 106 % of control | dose: 160.0 mg/kg/injection, schedule: Q01DX009 (ip), vehicle: saline with Tween-80 99 % of control and 102 % of control | dose: 200.0 mg/kg/injection, schedule: Q01DX005 (ip), vehicle: saline 101 % of control | dose: 200.0 mg/kg/injection, schedule: Q01DX009 (ip), vehicle: other 110 % of control | [4] 112 % of control | dose: 225.0 mg/kg/injection, schedule: Q01DX009 (ip), vehicle: other 109 % of control | dose: 320.0 mg/kg/injection, schedule: Q01DX009 (ip), vehicle: saline with Tween-80 106 % of control and 97 % of control | dose: 400.0 mg/kg/injection, schedule: Q01DX005 (ip), vehicle: saline 103 % of control | dose: 400.0 mg/kg/injection, schedule: Q01DX009 (ip), vehicle: saline 108 % of control | dose: 800.0 mg/kg/injection, schedule: Q01DX009 (ip), vehicle: saline 108 % of control

COc1cc(C(=O)CCCC(=O)O)cc(OC)c1OC
inactive: [1] 96 % of control | [2] 92 % of control | dose: 200.0 mg/kg/injection, schedule: Q01DX009 (ip), vehicle: saline with Tween-80 88 % of control

O=C(CC(c1ccccc1)C1c2ccccc2C(=O)c2ccccc21)c1ccccc1 (centres undefined)
inactive: dose: 50.0 mg/kg/injection, schedule: Q01DX009 (ip), vehicle: Klucel (hydroxypropylcellulose) (HPC) 87 % of control | dose: 100.0 mg/kg/injection, schedule: Q01DX009 (ip), vehicle: Klucel (hydroxypropylcellulose) (HPC) 93 % of control | dose: 200.0 mg/kg/injection, schedule: Q01DX009 (ip), vehicle: Klucel (hydroxypropylcellulose) (HPC) 92 % of control | dose: 400.0 mg/kg/injection, schedule: Q01DX009 (ip), vehicle: Klucel (hydroxypropylcellulose) (HPC) 88 % of control

C=CCCCCCCCCCC(=O)C=C
inactive: dose: 2.75 mg/kg/injection, schedule: Q01DX005 (ip), vehicle: Klucel (hydroxypropylcellulose) (HPC) 98 % of control | dose: 5.5 mg/kg/injection, schedule: Q01DX005 (ip), vehicle: Klucel (hydroxypropylcellulose) (HPC) 99 % of control | dose: 11.0 mg/kg/injection, schedule: Q01DX005 (ip), vehicle: Klucel (hydroxypropylcellulose) (HPC) 92 % of control | dose: 22.0 mg/kg/injection, schedule: Q01DX005 (ip), vehicle: Klucel (hydroxypropylcellulose) (HPC) 92 % of control | dose: 44.0 mg/kg/injection, schedule: Q01DX005 (ip), vehicle: Klucel (hydroxypropylcellulose) (HPC) 91 % of control

Cc1ccccc1/C=N\N1C(=O)C(C)SC1c1ccccc1C (centres undefined)
inactive: [1] 91 % of control | [2] 93 % of control

CCN1c2ccccc2S(=O)(=O)n2c(Cc3ccccc3)nnc21
inactive: dose: 100.0 mg/kg/injection, schedule: Q01DX001 (ip), vehicle: saline with Tween-80 93 % of control | dose: 200.0 mg/kg/injection, schedule: Q01DX001 (ip), vehicle: saline with Tween-80 92 % of control

COc1ccc(CNSC(c2ccccc2)(c2ccccc2)c2ccccc2)cc1
inactive: [5] 98 % of control | [6] 101 % of control | [7] 97 % of control

CC(CNCCN)C[Si](C)(C)C (centres undefined)
inactive: dose: 6.25 mg/kg/injection, schedule: Q01DX009 (ip), vehicle: saline 95 % of control | dose: 12.5 mg/kg/injection, schedule: Q01DX009 (ip), vehicle: saline 87 % of control | [8] 95 % of control

COc1cc2cc(c1Cl)NC(=O)CC(OC(=O)C(C)N(C)C(=O)C(C)C)C1(C)OC1C(C)C1CC(O)(NC(=O)O1)C(OC)/C=C/C=C(C)C2OC (centres undefined)
active: dose: 8.0 micrograms/kg/injection, schedule: Q01DX009 (ip), vehicle: distilled water + Tween-80 + alcohol 161 % of control | dose: 16.0 micrograms/kg/injection, schedule: Q01DX009 (ip), vehicle: distilled water + Tween-80 + alcohol 155 % of control and 179 % of control | dose: 32.0 micrograms/kg/injection, schedule: Q01DX009 (ip), vehicle: distilled water + Tween-80 + alcohol 154 % of control and 184 % of control
inactive: dose: 64.0 micrograms/kg/injection, schedule: Q01DX009 (ip), vehicle: distilled water + Tween-80 + alcohol 86 % of control

CC1C/C=C\COC(=O)CC(C)(C)CC1=O (centres undefined)
inactive: [9] 99 % of control | [10] 99 % of control | [11] 95 % of control

Cc1[nH]c(C)c(Br)c(=O)c1F
inactive: dose: 6.25 mg/kg/injection, schedule: Q01DX009 (ip), vehicle: Klucel (hydroxypropylcellulose) (HPC) 116 % of control | dose: 12.5 mg/kg/injection, schedule: Q01DX009 (ip), vehicle: Klucel (hydroxypropylcellulose) (HPC) 110 % of control | dose: 25.0 mg/kg/injection, schedule: Q01DX009 (ip), vehicle: Klucel (hydroxypropylcellulose) (HPC) 100 % of control

N#C/C(=N\O)C(N)=O
inactive: [8] 92 % of control | [12] 105 % of control | [3] 105 % of control | [4] 98 % of control

CC(NC(=O)C(Cc1c[nH]c2ccccc12)NC(=O)OCc1ccccc1)C(=O)O (centres undefined)
inactive: [5] 119 % of control | [6] 103 % of control | [7] 97 % of control

CCc1ccc2ccc3ccc(CC)nc3c2n1
inactive: [13] 106 % of control | [14] 102 % of control | dose: 240.0 mg/kg/injection, schedule: Q01DX005 (ip), vehicle: saline with Tween-80 99 % of control

CO/C=C1\CC(=O)N(c2ccccc2)C1=O
inactive: [9] 106 % of control | [10] 100 % of control | [11] 97 % of control

CCCCCCCCCCCCCC[N+]1([O-])CCCC1
inactive: [12] 94 % of control

CCC(c1ccc(O)cc1)C(CC)c1ccc(O)c(CN(C)C)c1 (centres undefined)
inactive: dose: 15.0 mg/kg/injection, schedule: Q01DX005 (ip), vehicle: saline with Tween-80 100 % of control | dose: 30.0 mg/kg/injection, schedule: Q01DX005 (ip), vehicle: saline with Tween-80 100 % of control | [13] 96 % of control | [14] 94 % of control

C=C(C)C(=O)OC1CC2(C)OC(=CC2=O)C(C)CC2OC(=O)C(=C)C12 (centres undefined)
inactive: dose: 25.0 mg/kg/injection, schedule: Q01DX001 (ip), vehicle: saline with Tween-80 118 % of control | dose: 50.0 mg/kg/injection, schedule: Q01DX001 (ip), vehicle: saline with Tween-80 116 % of control

c1ccc2c(c1)Sc1ccccc1N2CCCNC1=NCCO1
inactive: dose: 12.5 mg/kg/injection, schedule: Q04DX003 (ip), vehicle: saline with Tween-80 94 % of control | dose: 25.0 mg/kg/injection, schedule: Q04DX003 (ip), vehicle: saline with Tween-80 96 % of control | dose: 50.0 mg/kg/injection, schedule: Q04DX003 (ip), vehicle: saline with Tween-80 87 % of control | dose: 200.0 mg/kg/injection, schedule: Q04DX003 (ip), vehicle: saline with Tween-80 88 % of control | dose: 400.0 mg/kg/injection, schedule: Q04DX003 (ip), vehicle: saline with Tween-80 90 % of control

CCOc1nc2ccc(NC(C)CN3CCN(CCc4ccccc4)CC3)cc2s1 (centres undefined)
inactive: dose: 50.0 mg/kg/injection, schedule: Q01DX005 (ip), vehicle: Klucel (hydroxypropylcellulose) (HPC) 109 % of control | dose: 100.0 mg/kg/injection, schedule: Q01DX005 (ip), vehicle: Klucel (hydroxypropylcellulose) (HPC) 118 % of control
